In US7087622B2, “Pyridone compounds as inhibitors of bacterial type III protein secreation systems” (priority 2004, dated 2006) one finds IC50 data, which are given here for 19 compounds.

For test [1], the system named is SPI1 type III protein secretion system (SipB secretion). Nature of the test: Secondary assay: Type III-dependent protein secretion of the SipB polypeptide by S. enterica (immunoblot). The class given is cell-based. The conditions noted are these: Salmonella enterica, read-out: SipB IC50(uM). On the procedure:
Secondary assay: Type III-dependent protein secretion of the SipB polypeptide by S. enterica. The SipB protein of S. enterica is another effector of the SPI1 type III protein secretion system from S. enterica. In this cell-based procedure, the Type III-dependent secretion of SipB from the bacterial cytoplasm to the extracellular medium was measured through its reactivity with a cognate mouse monoclonal.
Salmonella enterica cells growing either in the presence or in the absence of inhibitors are induced for the production of SipB. Following an established period of growth the cells are sedimented and the amount of SipB present in the supernatant is quantified with a scanning imager following application of immunoblot techniques. Detection may employ an anti-SipB mouse monoclonal antibody (e.g., obtained from Jorge Galan, SUNY at Stony Brook, N.Y.) followed by treatment with commercially available sheep anti-mouse polyclonal antibody conjugated with horseradish peroxidase. Thereafter the membrane is treated with a peroxidase chemiluminescent substrate and exposed to film for an appropriate exposure time. Inhibition may be measured relative to untreated controls.
For orientation: In western blotting, separated proteins are transferred to a membrane and probed.

Test [2] deals with SPI1 type III protein secretion system (SopE-Bla secretion). Kind of test: Primary assay: Type III protein secretion of the chimeric SopE-Bla polypeptide by Salmonella enterica (nitrocefin hydrolysis). It counts as cell-based. The conditions noted are these: read-out: SopE IC50(uM). From the text: Primary assay: Type III protein secretion of the chimeric SopÉ-Bla polypeptide by Salmonella enterica. This procedure is a cell-based assay that measures the type III-dependent secretion by Salmonella enterica of a plasmid-encoded chimeric polypeptide whose synthesis can be regulated, and which is endowed with an enzymatic activity that can be monitored calorimetrically by hydrolysis of a substrate that is unable to penetrate into the bacterial cytoplasm within the time constraints of the reaction. Thus, the colorimetric reaction is not influenced by SopÉ-Bla polypeptide in the bacterial cytoplasm. Instead, it effectively measures the amount of polypeptide that has been secreted from the S. enterica cytoplasm to the extracellular medium via type III system protein secretion.
The SopÉ-Bla recombinant polypeptide consists of two functionally distinct domains spliced together. The N-terminus domain is encoded by a polynucleotide region specifying the signal for type III secretion of the SopE polypeptide of S. enterica, an effector of the SPI1 type III protein secretion system. The C-terminus domain of SopÉ-Bla consists of a 263 amino acid peptide sequence that corresponds to the TEM-1 β-lactamase expressed by plasmid pBR322 but without its N-terminal signal sequence. The TEM-1 β-lactamase part of the SopÉ-Bla chimeric polypeptide is used as a reporter enzyme. It is capable of hydrolyzing nitrocefin resulting in a product whose accumulation can be monitored by colorimetric detection. The secretion of the SopÉ-Bla chimeric polypeptide from the cytoplasm to the extracellular medium is dependent on type III protein secretion.
For this procedure, cells grown under conditions known to favor a functional SPI1 secretion system are induced for expression of the SopÉ-Bla protein and grown either in the presence or in the absence of putative inhibitors for determined time. Nitrocefin is then added to the various cultures and its hydrolysis are used for quantitation. An inhibitor of Type III protein secretion is generally a compound that reduces the signal of the enzymatic reaction by decreasing the amount of SopÉ-Bla secreted into the extracellular medium.

As to `O=C(Nc1cc(-c2cccc3ccccc23)cn(C(CSCc2ccccc2)C(=O)O)c1=O)c1ccc(C(F)(F)F)cc1` (stereo in doubt) [Compound 16, (R)-3-Benzylsulfanyl-2-[5-naphthalen-1-yl-2-oxo-3-(4-trifluoromethyl-benzoylamino)-2H-pyridin-1-yl]propionic acid], the IC50 (commonly the concentration at which inhibition is half-maximal) in test [1] is over 100 µM; in test [2], 6.4 µM.
The matching figures for `O=C(Nc1cc(-c2ccc(-c3ccccc3)cc2)cn([C@@H](Cc2ccccc2)C(=O)O)c1=O)c1ccc(C(F)(F)F)cc1` [Compound 2, (S)-2-[5-Biphenyl-4-yl-2-oxo-3-(4-trifluoromethylbenzoylamino)-2H-pyridin-1-yl]-3-phenylpropionic acid]: over 100 µM and 9.3 µM.
Consider `O=C(Nc1cc(-c2ccc3ccccc3c2)cn([C@@H](Cc2ccccc2)C(=O)O)c1=O)c1ccc(C(F)(F)F)cc1` [Compound 3, (S)-2-[5-Naphthalen-2-yl-2-oxo-3-(4-trifluoromethylbenzoylamino)-2H-pyridin-1-yl]-3-phenylpropionic acid], for which the IC50 in test [1] was over 100 µM; in test [2], 28.5 µM.
In the case of `O=C(Nc1cc(-c2cncnc2)cn([C@@H](Cc2ccccc2)C(=O)O)c1=O)c1ccc(C(F)(F)F)cc1` [Compound 7, (S)-2-[2-Oxo-5-pyrimidin-5-yl-3-(4-trifluoromethylbenzoylamino)-2H-pyridin-1-yl]-3-phenylpropionic acid], the IC50 in test [1] was over 100 µM; in test [2] it was 82.3 µM.
With `CN(C)c1ccc(-c2cc(NC(=O)c3ccc(C(F)(F)F)cc3)c(=O)n([C@@H](COCc3ccccc3)C(=O)O)c2)cc1` [Compound 11, (S)-3-Benzyloxy-2-[5-(4-dimethylaminophenyl)-2-oxo-3-(4-trifluoromethyl-benzoylamino)-2H-pyridin-1-yl]propionic acid], the IC50 was over 100 µM in test [1] and 76 µM in test [2].
The matching figures for `CC(C)Oc1ccc(-c2cc(NC(=O)c3ccc(C(F)(F)F)cc3)c(=O)n([C@@H](COCc3ccccc3)C(=O)O)c2)cc1` [Compound 12, (S)-3-Benzyloxy-2-[5-(4-isopropoxyphenyl)-2-oxo-3-(4-trifluoromethyl-benzoylamino)-2H-pyridin-1-yl]propionic acid]: over 100 µM and 67.2 µM.
As for `O=C(Nc1cc(-c2ccc3ccccc3c2)cn([C@@H](COCc2ccccc2)C(=O)O)c1=O)c1ccc(C(F)(F)F)cc1` [Compound 13, (S)-3-Benzyloxy-2-[5-naphthalen-2-yl-2-oxo-3-(4-trifluoromethylbenzoylamino)-2H-pyridin-1-yl]propionic acid], the IC50 in test [1] was over 100 µM; in test [2], 48 µM.
The matching figures for `O=C(Nc1cc(-c2ccc(-c3ccccc3)cc2)cn(C(Cc2ccc(Cl)cc2)C(=O)O)c1=O)c1ccc(C(F)(F)F)cc1` (centres unmarked) [Compound 17, 2-[5-Biphenyl-4-yl-2-oxo-3-(4-trifluoromethylbenzoylamino)-2H-pyridin-1-yl]-3-(4-chlorophenyl)propionic acid]: over 100 µM and 2 µM.
For the compound `O=C(Nc1cc(-c2ccc(Oc3ccccc3)cc2)cn(C(Cc2ccc(Cl)cc2)C(=O)O)c1=O)c1ccc(C(F)(F)F)cc1` (centres unmarked) [Compound 18, 3-(4-Chlorophenyl)-2-[2-oxo-5-(4-phenoxyphenyl)-3-(4-trifluoromethyl-benzoylamino)-2H-pyridin-1-yl]propionic acid], the values for the IC50 in test [1] and in test [2] were over 100 µM and 2.3 µM, respectively.
For `O=C(Nc1cc(-c2cccc3ccccc23)cn(C(Cc2ccc(Cl)cc2)C(=O)O)c1=O)c1ccc(C(F)(F)F)cc1` (centres unmarked) [Compound 19, 3-(4-Chlorophenyl)-2-[5-naphthalen-1-yl-2-oxo-3-(4-trifluoromethyl-benzoylamino)-2H -1-yl]propionic acid], the IC50 in test [1] was over 100 µM; in test [2] it was 5.5 µM.
Take `O=C(Nc1cc(-c2cccc(C(F)(F)F)c2)cn(C(Cc2ccc(Cl)cc2)C(=O)O)c1=O)c1ccc(Oc2ccccc2)cc1` (centres unmarked) [Compound 23, 3-(4-Chlorophenyl)-2-[2-oxo-3-(4-phenoxybenzoylamino)-5-(3-trifluoromethyl-phenyl)-2H-pyridin-1-yl]propionic acid]: the IC50 is over 100 µM in test [1] and 9.8 µM in test [2].
Turning to `O=C(Nc1cc(-c2cc3ccccc3o2)cn(C(Cc2ccc(Cl)cc2)C(=O)O)c1=O)c1ccc(C(F)(F)F)cc1` (centres unmarked) [Compound 25, 2-[5-Benzofuran-2-yl-2-oxo-3-(4-trifluoromethylbenzoylamino)-2H-pyridin-1-yl]-3-(4-chlorophenyl)propionic acid], the IC50 in test [1] is over 100 µM; in test [2], 3.7 µM.
Take `O=C(Nc1cc(-c2cc3ccccc3s2)cn(C(Cc2ccc(Cl)cc2)C(=O)O)c1=O)c1ccc(C(F)(F)F)cc1` (centres unmarked) [Compound 26, 2-[5-Benzo[b]thiophen-2-yl-2-oxo-3-(4-trifluoromethylbenzoylamino)-2H-pyridin-1-yl]-3-(4-chlorophenyl)propionic acid]: the IC50 is over 100 µM in test [1] and 2.4 µM in test [2].
With `CC(=O)c1ccc(-c2cc(NC(=O)c3ccc(C(F)(F)F)cc3)c(=O)n(C(Cc3ccc(Cl)cc3)C(=O)O)c2)s1` (centres unmarked) [Compound 27, 2-[5-(5-Acetylthiophen-2-yl)-2-oxo-3-(4-trifluoromethylbenzoylamino)-2H-pyridin-1-yl]-3-(4-chlorophenyl)propionic acid], the figures for the IC50 in test [1] and in test [2] were over 100 µM and 34.2 µM, respectively.
Take `CC(=O)Nc1cccc(-c2cc(NC(=O)c3ccc(C(F)(F)F)cc3)c(=O)n(C(Cc3ccc(Cl)cc3)C(=O)O)c2)c1` (centres unmarked) [Compound 28, 2-[5-(3-Acetylaminophenyl)-2-oxo-3-(4-trifluoromethylbenzoylamino)-2H-pyridin-1-yl]-3-(4-chlorophenyl)propionic acid]: the IC50 in test [1] was over 100 µM; in test [2] it was 52.4 µM.
On to `O=C(Nc1cc(-c2ccc(O)cc2)cn(C(Cc2ccc(Cl)cc2)C(=O)O)c1=O)c1ccc(C(F)(F)F)cc1` (centres unmarked) [Compound 29, 3-(4-Chlorophenyl)-2-[5-(4-hydroxyphenyl)-2-oxo-3-(4-trifluoromethyl-benzoylamino)-2H-pyridin-1-yl]propionic acid], for which the results for the IC50 in test [1] and in test [2] were over 100 µM and 31.8 µM, respectively.
On to `O=C(Nc1cc(C#Cc2ccccc2)cn(C(Cc2ccc(Cl)cc2)C(=O)O)c1=O)c1ccc(C(F)(F)F)cc1` (centres unmarked) [Compound 31, 3-(4-Chlorophenyl)-2-[2-oxo-5-phenylethynyl-3-(4-trifluoromethylbenzoylamino)-2H-pyridin-1-yl]propionic acid], for which the IC50 in test [1] is over 100 µM; in test [2] it was 34.2 µM.
The matching figures for `O=C(Nc1cc(-c2ccccc2)cn(C(Cc2ccc(Cl)cc2)C(=O)O)c1=O)c1ccc(-c2ccccc2)cc1` (centres unmarked) [Compound 32, 2-{3-[(Biphenyl-4-carbonyl)amino]-2-oxo-5-phenyl-2H-pyridin-1-yl}-3-(4-chloro-phenyl)propionic acid]: over 100 µM and 2.3 µM.
Turning to `O=C(Nc1cc(-c2cc(F)cc(F)c2)cn(C(Cc2ccc(Cl)cc2)C(=O)O)c1=O)c1ccc(-c2ccccc2)cc1` (centres unmarked) [Compound 36, [3-[(Biphenyl-4-carbonyl)amino]-5-(3,5-difluorophenyl)-2-oxo-2H-pyridin-1-yl]-3-(4-chlorophenyl)propionic acid], the IC50 in test [1] is over 100 µM; in test [2], 2.4 µM.
